Assay results published in patent US20220033364A1, “INSECTICIDAL COMPOUNDS” (SYNGENTA CROP PROTECTION AG, priority 2018, published 2022).

What was measured:
Assay type in all cases: in vivo
[1] = tested on: Diabrotica balteata; test: Diabrotica balteata (corn root worm) maize sprout spray test; details: 96 h, spray on maize sprouts, L2 larvae, 4 days after infestation, read-out: effect in at least one of the two categories (mortality or growth inhibition)
Method: Maize sprouts placed onto an agar layer in 24-well microtiter plates were treated with aqueous test solutions prepared from 10′000 ppm DMSO stock solutions by spraying. After drying, the plates were infested with L2 larvae (6 to 10 per well). The samples were assessed for mortality and growth inhibition in comparison to untreated samples 4 days after infestation.

[2] = tested on: Euschistus heros; test: Euschistus heros (neotropical brown stink bug) soybean leaf spray test; details: 120 h, spray on soybean leaves, N2 nymphs, 5 days after infestation, read-out: effect in at least one of the two categories (mortality or growth inhibition)
Method: Soybean leaves on agar in 24-well microtiter plates were sprayed with aqueous test solutions prepared from 10′000 ppm DMSO stock solutions. After drying the leaves were infested with N2 nymphs. The samples were assessed for mortality and growth inhibition in comparison to untreated samples 5 days after infestation.

[3] = tested on: Plutella xylostella; test: Plutella xylostella (diamond back moth) artificial diet test, L2 larvae; details: 120 h, 5 days after infestation, read-out: effect in at least one of the two categories (mortality or growth inhibition)
Method: 24-well microtiter plates with artificial diet were treated with aqueous test solutions prepared from 10′000 ppm DMSO stock solutions by pipetting. After drying, the plates were infested with L2 larvae (10 to 15 per well). The samples were assessed for mortality and growth inhibition in comparison to untreated samples 5 days after infestation.

[4] = tested on: Myzus persicae; test: Myzus persicae (green peach aphid) feeding/contact activity; details: foliar, 144 h, spray on sunflower leaf discs, mixed ages, 6 days after infestation
Method: Sunflower leaf discs were placed onto agar in a 24-well microtiter plate and sprayed with aqueous test solutions prepared from 10′000 ppm DMSO stock solutions. After drying, the leaf discs were infested with an aphid population of mixed ages. The samples were assessed for mortality 6 days after infestation.

[5] = tested on: Spodoptera littoralis; test: Spodoptera littoralis (Egyptian cotton leaf worm) cotton leaf disc test; details: foliar, 72 h, spray on cotton leaf discs, L1 larvae, 3 days after infestation, read-out: control (mortality, anti-feeding effect or growth inhibition)
Method: Cotton leaf discs were placed onto agar in 24-well microtiter plates and sprayed with aqueous test solutions prepared from 10′000 ppm DMSO stock solutions. After drying the leaf discs were infested with five L1 larvae. The samples were assessed for mortality, anti-feeding effect, and growth inhibition in comparison to untreated samples 3 days after infestation. Control of Spodoptera littoralis by a test sample is given when at least one of the categories mortality, anti-feedant effect, and growth inhibition is higher than the untreated sample.

[6] = tested on: Tetranychus urticae; test: Tetranychus urticae (two-spotted spider mite) feeding/contact activity; details: foliar, 192 h, spray on bean leaf discs, mixed population (mobile stages), 8 days after infestation
Method: Bean leaf discs on agar in 24-well microtiter plates were sprayed with aqueous test solutions prepared from 10′000 ppm DMSO stock solutions. After drying the leaf discs were infested with a mite population of mixed ages. The samples were assessed for mortality on mixed population (mobile stages) 8 days after infestation.

[7] = tested on: Thrips tabaci; test: Thrips tabaci (onion thrips) feeding/contact activity; details: foliar, 144 h, spray on sunflower leaf discs, mixed ages, 6 days after infestation
Method: Sunflower leaf discs were placed on agar in 24-well microtiter plates and sprayed with aqueous test solutions prepared from 10′000 ppm DMSO stock solutions. After drying the leaf discs were infested with a thrips population of mixed ages. The samples were assessed for mortality 6 days after infestation.

[8] = tested on: Plutella xylostella; test: Plutella xylostella (diamond back moth) artificial diet test, eggs; details: 192 h, 8 days after infestation, read-out: effect in at least one of the two categories (mortality or growth inhibition)
Method: 24-well microtiter plates with artificial diet were treated with aqueous test solutions prepared from 10′000 ppm DMSO stock solutions by pipetting. After drying, Plutella eggs were pipetted through a plastic stencil onto a gel blotting paper and the plate was closed with it. The samples were assessed for mortality and growth inhibition in comparison to untreated samples 8 days after infestation.

Cc1cc(C2=NO[C@@](c3cc(Cl)c(F)c(Cl)c3)(C(F)(F)F)C2)ccc1C(=O)N(C(=O)C1CC1)[C@H]1CON(S(=O)(=O)C(F)F)C1 [Compound A1, N-(cyclopropanecarbonyl)-4-[(5S)-5-(3,5-dichloro-4-fluoro-phenyl)-5-(trifluoromethyl)-4H-isoxazol-3-yl]-N-[(4R)-2-(difluoromethylsulfonyl)isoxazolidin-4-yl]-2-methyl-benzamide]
≥ 80%: percent effect (mortality or growth inhibition) at 200 ppm [1] | percent effect (mortality or growth inhibition) at 200 ppm [2] | percent effect (mortality or growth inhibition) at 200 ppm [3] | mortality at 200 ppm [4] | percent control (mortality, anti-feedant effect or growth inhibition) at 200 ppm [5] | mortality at 200 ppm [6] | mortality at 200 ppm [7]

Cc1cc(C2=NO[C@@](c3cc(Cl)c(F)c(Cl)c3)(C(F)(F)F)C2)ccc1C(=O)N(COC1CC1)[C@H]1CON(S(=O)(=O)C(F)F)C1 [Compound A2, N-(cyclopropoxymethyl)-4-[(5S)-5-(3,5-dichloro-4-fluoro-phenyl)-5-(trifluoromethyl)-4H-isoxazol-3-yl]-N-[(4R)-2-(difluoromethylsulfonyl)isoxazolidin-4-yl]-2-methyl-benzamide]
≥ 80%: percent effect (mortality or growth inhibition) at 200 ppm [2] | percent effect (mortality or growth inhibition) at 200 ppm [8] | percent control (mortality, anti-feedant effect or growth inhibition) at 200 ppm [5]
